Biological target: 1,3-beta-glucan synthase (Aspergillus fumigatus, UniProt P87204, S678P)
Assay: Inhibition of 1,3-beta-D-glucan synthase EMFR-S678P mutant from Aspergillus fumigatus assessed as incorporation of [3H]glucose

Chain of 1,3-beta-glucan synthase (P87204 entry or part of it S678P): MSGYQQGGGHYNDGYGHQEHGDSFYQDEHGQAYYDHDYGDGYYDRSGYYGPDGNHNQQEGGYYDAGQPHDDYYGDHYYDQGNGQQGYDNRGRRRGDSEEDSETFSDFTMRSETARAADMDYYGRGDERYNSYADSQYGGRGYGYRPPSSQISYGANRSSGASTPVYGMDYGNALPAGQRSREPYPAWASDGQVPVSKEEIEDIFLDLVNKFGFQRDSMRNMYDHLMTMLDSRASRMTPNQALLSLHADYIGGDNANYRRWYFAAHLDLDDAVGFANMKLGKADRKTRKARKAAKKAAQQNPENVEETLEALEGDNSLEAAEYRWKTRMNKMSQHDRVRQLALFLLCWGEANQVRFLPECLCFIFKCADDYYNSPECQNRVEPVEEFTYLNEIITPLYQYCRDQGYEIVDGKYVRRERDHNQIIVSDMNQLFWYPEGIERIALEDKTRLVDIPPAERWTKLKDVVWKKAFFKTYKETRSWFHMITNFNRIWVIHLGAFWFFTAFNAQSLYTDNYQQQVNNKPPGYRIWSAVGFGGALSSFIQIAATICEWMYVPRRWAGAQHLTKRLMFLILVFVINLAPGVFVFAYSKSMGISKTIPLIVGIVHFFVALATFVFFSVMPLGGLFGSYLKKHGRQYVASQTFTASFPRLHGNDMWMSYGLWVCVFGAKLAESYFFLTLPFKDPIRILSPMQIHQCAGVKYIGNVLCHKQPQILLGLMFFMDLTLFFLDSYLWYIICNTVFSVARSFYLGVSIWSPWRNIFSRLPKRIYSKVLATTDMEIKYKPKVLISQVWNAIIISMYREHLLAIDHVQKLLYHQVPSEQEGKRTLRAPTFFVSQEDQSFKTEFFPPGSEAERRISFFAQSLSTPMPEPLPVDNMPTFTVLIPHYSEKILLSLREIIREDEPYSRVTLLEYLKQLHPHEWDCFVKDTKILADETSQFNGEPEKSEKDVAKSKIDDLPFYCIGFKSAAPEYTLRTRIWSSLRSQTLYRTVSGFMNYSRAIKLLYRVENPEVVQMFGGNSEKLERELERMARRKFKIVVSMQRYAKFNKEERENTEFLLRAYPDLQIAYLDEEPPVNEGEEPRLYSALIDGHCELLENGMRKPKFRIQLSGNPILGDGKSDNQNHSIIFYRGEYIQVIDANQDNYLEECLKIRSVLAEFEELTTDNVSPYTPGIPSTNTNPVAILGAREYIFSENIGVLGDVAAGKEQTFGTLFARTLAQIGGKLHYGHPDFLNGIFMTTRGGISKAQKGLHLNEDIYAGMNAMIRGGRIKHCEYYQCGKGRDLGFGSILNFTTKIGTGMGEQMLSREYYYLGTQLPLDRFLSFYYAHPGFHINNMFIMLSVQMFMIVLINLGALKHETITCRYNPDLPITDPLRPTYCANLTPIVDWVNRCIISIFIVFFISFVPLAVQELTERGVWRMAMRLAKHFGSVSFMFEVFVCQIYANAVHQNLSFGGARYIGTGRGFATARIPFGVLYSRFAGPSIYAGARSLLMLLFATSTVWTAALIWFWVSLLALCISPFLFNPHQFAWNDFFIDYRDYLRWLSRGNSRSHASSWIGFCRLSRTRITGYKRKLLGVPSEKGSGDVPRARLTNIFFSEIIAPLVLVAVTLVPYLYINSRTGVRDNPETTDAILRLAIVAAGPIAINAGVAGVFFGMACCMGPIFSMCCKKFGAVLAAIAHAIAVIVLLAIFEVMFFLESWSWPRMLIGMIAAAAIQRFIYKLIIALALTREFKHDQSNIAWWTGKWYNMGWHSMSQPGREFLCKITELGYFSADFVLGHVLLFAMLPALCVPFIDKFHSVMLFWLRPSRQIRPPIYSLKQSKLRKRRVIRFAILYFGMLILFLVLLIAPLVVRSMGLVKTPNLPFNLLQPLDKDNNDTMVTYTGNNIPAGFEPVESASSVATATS

CCC(C)CC(C)CCCCCCCCC(=O)N[C@H]1C[C@@H](O)[C@@H](NCCN)NC(=O)[C@@H]2[C@@H](O)CCN2C(=O)[C@H]([C@H](O)CCN)NC(=O)[C@H]([C@H](O)[C@@H](O)c2ccc(O)cc2)NC(=O)[C@@H]2C[C@@H](O)CN2C(=O)[C@H]([C@@H](C)O)NC1=O (stereo partly specified) [CHEBI:474180] gave an IC50 of 110 nM.

Reference: BindingDB's records for doi:10.1128/aac.00917-07 (Umdnj-New Jersey Medical School, 2007)
